Measurements reported in patent US20050182025A1, “Amidinylphenyl compounds and their use as fungicides” (priority 2002, published 2005).

Columns and labels:
Assay type in all cases: in vivo
[1] = test system: Erysiphe graminis f. sp. tritici; assay: Test A: preventive spray on wheat seedlings, wheat powdery mildew, disease rating; conditions: wheat seedlings sprayed to run-off, inoculated the following day with Erysiphe graminis f. sp. tritici, rated after 7 days at 20° C.; test concentration not given
How it was run: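 Preventive test: Erysiphe graminis f. sp. tritici spore dust applied one day after run-off spraying of seedlings with acetone/water/surfactant suspension, 200 ppm equating to 500 g/ha. Plants held 7 days at 20 °C; ratings give % disease control versus controls, 100 full, 0 none.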

Puccinia recondita = assay: Test B: preventive spray on wheat seedlings, wheat leaf rust, disease rating; conditions: wheat seedlings sprayed to run-off, inoculated the following day with Puccinia recondita, 24 h saturated atmosphere then 6 days at 20° C.; test concentration not given
How it was run: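 Preventive test: seedlings inoculated with Puccinia recondita one day after run-off spraying with test suspension (acetone/water, 250 ppm Trem 014; 200 ppm equals 500 g/ha). Rating after 24 h at 20° C in saturation plus 6 days in 20° C growth chamber; 0–100 scale versus controls.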

Septoria nodorum = assay: Test C: preventive spray on wheat seedlings, Septoria glume blotch, disease rating; conditions: wheat seedlings sprayed to run-off, inoculated the following day with Septoria nodorum, 48 h saturated atmosphere then 9 days at 20° C.; test concentration not given
How it was run: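 Preventive test: one day after spraying (to run-off; 200 ppm ≈ 500 g/ha, in acetone/water with 250 ppm surfactant), seedlings received a S. nodorum spore suspension. After 48 h in saturated air and 9 days in a growth chamber, both at 20° C., % disease control versus controls was scored.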

SMILES | Test A disease control rating (100 = 100% disease control, 0 = no disease control relative to the controls) [1] | Test B disease control rating (100 = 100% disease control, 0 = no disease control relative to the controls) (Puccinia recondita) | Test C disease control rating (100 = 100% disease control, 0 = no disease control relative to the controls) (Septoria nodorum)
Cc1cc(OCCCC(C)C)c(C)cc1NC(=S)N(C)C [compound 107] | 60% | 99% | 99%
CCN(C)C(=S)Nc1cc(Cl)c(OCCCC(C)C)cc1C [compound 112] | 95% | 99% | 99%
CCN(CC)C(=S)Nc1cc(C)c(OCCCC(C)C)cc1C [compound 108] | 87% | 89% | 96%
Cc1cc(OCCCC(C)C)c(C)cc1N=CN(C)C [Compound 13, N′-[2,5-Dimethyl-4-[(4-methylpentyl)oxy]-phenyl]-N,N-dimethylmethanimidamide] | 97% | 100% | 100%
CC(C)=CCCOc1cc(C)c(N=CN(C)C)cc1C [Compound 39] | 0% | 100% | 94%
CCCCC(CCCC)Sc1cc(C)c(N=C(C)N(C)C)cc1C [compound 143] | 0% | 0% | 80%
C=CCCCCOc1cc(C)c(N=CN(C)C)cc1C [Compound 5] | 0% | 100% | 89%
Cc1cc(NC(CCC(C)C)CCC(C)C)c(C)cc1N=CN(C)C [compound 151] | 0% | 0% | 60%
CCCCC(CCC)Oc1cc(C)c(N=CN(C)C)cc1C (stereo not drawn) [Compound 29] | 99% | 100% | 58%
Cc1cc(OCCC[Si](C)(C)C)c(Cl)cc1N=CN1CCCC1 [Compound 95] | 100% | 100% | 100%
CCN(C)C=Nc1cc(C)c(OCCC[Si](C)(C)C)cc1C [compound 196] | 100% | 100% | 100%
Cc1cc(OCCCC(C)(C)O)c(C)cc1N=CN(C)C [Compound 45] | 0% | 80% | 0%
C=C(CCCOc1cc(C)c(N=CN(C)C)cc1C)C(C)C [Compound 9] | 98% | 100% | 97%
CN(C)C=Nc1cc(Cl)c(OCCC[Si](C)(C)C)c(Cl)c1Cl [compound 55] | 0% | 19% | 0%
CCN(C)C(=S)Nc1cc(C)c(OCCC[Si](C)(C)C)cc1C [compound 164] | 100% | 100% | 100%
CCCCCCCCCCOc1cc(C)c(N=CN(C)C)cc1C [Compound 24] | 86% | 23% | 0%
Cc1cc(OCCC(C)C)c(C)cc1N=CN(C)C [Compound 8] | 97% | 100% | 98%
CCN(C)C(=S)Nc1cc(Cl)c(OCCC[Si](C)(C)C)cc1Cl [compound 184] | 100% | 99% | 78%
CCN(C)C=Nc1cc(C)c(OCCC[Si](C)(C)C)c(Cl)c1C [compound 140] | 100% | 100% | 100%
CCCCC(CCCC)Oc1cc(C)c(N=CN(C)C)cc1C [Compound 28, N′-[4-[(1-Butylpentyl)oxy]-2,5-dimethylphenyl]-N,N-dimethylmethanimidamide] | 0% | 97% | 0%
C=C(C)CCC(CC)Oc1cc(C)c(N=C(C)N(C)C)cc1C (stereo not drawn) [compound 104] | 0% | 23% | 0%
